According to ChEMBL document CHEMBL1201862, “PubChem BioAssay data set” (2004):
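Each compound was tested at five concentrations against cells in 96-well plates for 48 hours. GI50 = concentration required for 50% inhibition of growth.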 Calls of active or inactive are those of the source. Cut-off read from the data, not from the text of the source: active = GI50 up to about 1.1 µM and inactive = higher.

Experiments:
Experiment in all cases: inhibition of tumour cell growth, NCI panel, 48 h
[1] = system: A498
[2] = system: A549
[3] = system: COLO 205
[4] = system: HCT-116
[5] = system: HCT-15
[6] = system: HL-60
[7] = system: HT-29
[8] = system: Hs-578T
[9] = system: KM12
[10] = system: LOX IMVI
[11] = system: OVCAR-5
[12] = system: RPMI-8226
[13] = system: SK-MEL-28
[14] = system: SN12C
[15] = system: T47D
[16] = system: TK-10
[17] = system: U-251
[18] = system: UACC-257
[19] = system: SF-268

SMILES	GI50 [1]	GI50 [2]	GI50 [3]	GI50 [4]	GI50 [5]	GI50 [6]	GI50 [7]	GI50 [8]	GI50 [9]	GI50 [10]	GI50 [11]	GI50 [12]	GI50 [13]	GI50 [14]	GI50 [15]	GI50 [16]	GI50 [17]	GI50 [18]	GI50 [19]
O=C(Nc1nnc(-c2ccccc2)o1)C(SC(=S)N1CCCCC1)c1ccccc1 (stereo not drawn)	27.3 µM (inactive)	17.1 µM (inactive)	31 µM (inactive)	13.4 µM (inactive)	5.02 µM	3.11 µM (inactive)	20.6 µM (inactive)	59.8 µM (inactive)	22.9 µM (inactive)	4.16 µM (inactive)	26.6 µM (inactive)	16.2 µM (inactive)	24.1 µM (inactive)	10.9 µM (inactive)	31.2 µM (inactive)	56 µM (inactive)	14.4 µM (inactive)	32.4 µM (inactive)	–
CNc1cccc2c1C(C)C[C@]1(C)C(=O)Nc3ccccc3[C@H]21 (stereo partly drawn)	24 µM (inactive)	20 µM (inactive)	29.8 µM (inactive)	18.7 µM (inactive)	39.4 µM	> 100 µM (inactive)	28 µM (inactive)	27.7 µM (inactive)	26.1 µM (inactive)	15.8 µM (inactive)	31.1 µM (inactive)	54.6 µM (inactive)	30.3 µM (inactive)	21 µM (inactive)	41.1 µM (inactive)	13.8 µM (inactive)	–	13.4 µM (inactive)	34 µM (inactive)
C=C1C(=O)O[C@H]2C(=O)[C@H](C)CCC/C(C)=C/CC[C@@]3(C)O[C@@H]3C[C@@H]12	18.4 µM (inactive)	5.82 µM (inactive)	1.58 µM (inactive)	1.05 µM (active)	1.56 µM	2.72 µM (inactive)	1.9 µM (inactive)	6.34 µM (inactive)	4.3 µM (inactive)	1.49 µM (inactive)	5.6 µM (inactive)	2.25 µM (inactive)	–	5.53 µM (inactive)	2.01 µM (inactive)	0.135 µM (active)	2.67 µM (inactive)	2.99 µM (inactive)	4.54 µM (inactive)
Cc1ccc(S(=O)(=O)Nc2cc(O)nc3c2CCC3)cc1	> 100 µM (inactive)	> 100 µM (inactive)	> 100 µM (inactive)	> 100 µM (inactive)	> 100 µM	34 µM (inactive)	> 100 µM (inactive)	> 100 µM (inactive)	> 100 µM (inactive)	> 100 µM (inactive)	> 100 µM (inactive)	43.2 µM (inactive)	> 100 µM (inactive)	> 100 µM (inactive)	> 100 µM (inactive)	> 100 µM (inactive)	> 100 µM (inactive)	> 100 µM (inactive)	> 100 µM (inactive)
Cc1ccc2cccc(OC(=O)c3cc4c(cc3Cl)Sc3nccn3S4(=O)=O)c2n1	17.7 µM (inactive)	11.2 µM (inactive)	15.8 µM (inactive)	6.53 µM (inactive)	5.26 µM	< 0.01 µM (active)	10 µM (inactive)	13.4 µM (inactive)	5.75 µM (inactive)	7.13 µM (inactive)	23.8 µM (inactive)	2.33 µM (inactive)	10.2 µM (inactive)	12.8 µM (inactive)	4.44 µM (inactive)	11 µM (inactive)	4.34 µM (inactive)	12.2 µM (inactive)	6.98 µM (inactive)
CC[C@@]1(O)C(=O)OCc2c1cc1n(c2=O)Cc2c-1nc1ccccc1c2/C=N\NC(=O)C(N)Cc1c[nH]cn1 (stereo partly drawn)	0.857 µM (active)	0.452 µM (active)	8.39 µM (inactive)	0.43 µM (active)	1.34 µM	0.164 µM (active)	2.1 µM (inactive)	> 64.9 µM (inactive)	2.38 µM (inactive)	0.131 µM (active)	3.56 µM (inactive)	0.356 µM (active)	1.26 µM (inactive)	0.0673 µM (active)	0.158 µM (active)	13.3 µM (inactive)	0.0776 µM (active)	2.68 µM (inactive)	0.0545 µM (active)
CCCCCCCCCCCCO[PH](=O)OCCCCCCCCCCCC	> 100 µM (inactive)	> 100 µM (inactive)	> 100 µM (inactive)	> 100 µM (inactive)	> 100 µM	> 100 µM (inactive)	> 100 µM (inactive)	> 100 µM (inactive)	32.2 µM (inactive)	–	> 100 µM (inactive)	> 100 µM (inactive)	> 100 µM (inactive)	> 100 µM (inactive)	> 100 µM (inactive)	34.4 µM (inactive)	> 100 µM (inactive)	28.3 µM (inactive)	> 100 µM (inactive)
COc1ccc(/C=C/C(=O)c2cc(C(C)(C)C)c(O)c(C(C)(C)C)c2)cc1OC	15 µM (inactive)	8.59 µM (inactive)	5.74 µM (inactive)	4.25 µM (inactive)	5.68 µM	2.84 µM (inactive)	4.18 µM (inactive)	17.8 µM (inactive)	4.36 µM (inactive)	8.75 µM (inactive)	25.2 µM (inactive)	2.56 µM (inactive)	37.5 µM (inactive)	8.15 µM (inactive)	3.29 µM (inactive)	6.82 µM (inactive)	5.79 µM (inactive)	5.12 µM (inactive)	17.9 µM (inactive)
CCN(C(C)=O)c1cnc(/C=N/NC(N)=S)c2ccccc12	19.8 µM (inactive)	4.01 µM (inactive)	4.83 µM (inactive)	2.67 µM (inactive)	2.25 µM	1.77 µM (inactive)	3.49 µM (inactive)	80.5 µM (inactive)	2.94 µM (inactive)	1.38 µM (inactive)	> 20 µM (inactive)	3.08 µM (inactive)	–	3.21 µM (inactive)	5.69 µM (inactive)	4.59 µM (inactive)	3.85 µM (inactive)	30.1 µM (inactive)	1.58 µM (inactive)
N#C/C(=C/n1c(=S)[nH]c2ccccc21)C(N)=O	> 100 µM (inactive)	> 100 µM (inactive)	> 100 µM (inactive)	> 100 µM (inactive)	> 100 µM	16.7 µM (inactive)	> 100 µM (inactive)	> 100 µM (inactive)	> 100 µM (inactive)	> 100 µM (inactive)	> 100 µM (inactive)	> 100 µM (inactive)	> 100 µM (inactive)	> 100 µM (inactive)	> 100 µM (inactive)	–	> 100 µM (inactive)	> 100 µM (inactive)	> 100 µM (inactive)
COC(=O)/C(=N\N)C(C(=O)C(=O)Nc1cc(Cl)ccc1Cl)c1nc2ccc([N+](=O)[O-])cc2nc1O (stereo not drawn)	> 100 µM (inactive)	> 100 µM (inactive)	–	> 100 µM (inactive)	82.6 µM	> 100 µM (inactive)	> 100 µM (inactive)	47.9 µM (inactive)	> 100 µM (inactive)	> 100 µM (inactive)	> 100 µM (inactive)	> 100 µM (inactive)	> 100 µM (inactive)	> 100 µM (inactive)	> 100 µM (inactive)	> 100 µM (inactive)	> 100 µM (inactive)	> 100 µM (inactive)	> 100 µM (inactive)
CCN(CC)CCCC(C)Nc1ccnc2cc3ccccc3cc12 (stereo not drawn)	22.6 µM (inactive)	7.03 µM (inactive)	3.3 µM (inactive)	5.75 µM (inactive)	3.23 µM	10.7 µM (inactive)	–	36.5 µM (inactive)	4.95 µM (inactive)	4.91 µM (inactive)	21.7 µM (inactive)	13.5 µM (inactive)	–	14.2 µM (inactive)	12.8 µM (inactive)	10.2 µM (inactive)	5.75 µM (inactive)	23.8 µM (inactive)	4.86 µM (inactive)
COC(=O)/C=C(/OC)[C@H](C)[C@H](/C=C/c1csc(-c2csc(C(C)C)n2)n1)OC	5.97 µM (inactive)	0.136 µM (active)	3.38 µM (inactive)	0.284 µM (active)	0.0975 µM	2.51 µM (inactive)	0.29 µM (active)	> 57.8 µM (inactive)	1.52 µM (inactive)	0.0838 µM (active)	> 100 µM (inactive)	0.373 µM (active)	63.5 µM (inactive)	10.3 µM (inactive)	1.4 µM (inactive)	–	0.149 µM (active)	0.455 µM (active)	0.647 µM (active)
COc1ccc(S(=O)(=O)N2C(=O)CCC2C(=O)NN)cc1 (stereo not drawn)	> 100 µM (inactive)	> 100 µM (inactive)	> 100 µM (inactive)	> 100 µM (inactive)	> 100 µM	> 100 µM (inactive)	> 100 µM (inactive)	61.8 µM (inactive)	> 100 µM (inactive)	> 100 µM (inactive)	> 100 µM (inactive)	> 100 µM (inactive)	> 100 µM (inactive)	> 100 µM (inactive)	> 100 µM (inactive)	> 100 µM (inactive)	> 100 µM (inactive)	> 100 µM (inactive)	–
CSC1=C(C(=O)Nc2ccccc2)C(N)=NC1=O	56.2 µM (inactive)	> 100 µM (inactive)	> 100 µM (inactive)	> 100 µM (inactive)	> 100 µM	> 100 µM (inactive)	> 100 µM (inactive)	> 100 µM (inactive)	> 100 µM (inactive)	> 100 µM (inactive)	–	> 100 µM (inactive)	> 100 µM (inactive)	> 100 µM (inactive)	92.7 µM (inactive)	> 100 µM (inactive)	> 100 µM (inactive)	> 100 µM (inactive)	> 100 µM (inactive)
